Patent US20250098675A1, “A METHOD OF CONTROLLING RESISTANT AND NON-RESISTANT PESTS” (UPL CORPORATION LIMITED, priority 2021, published 2025)
Where two headings read alike, the source gives them in different places.

What was measured:
Type in all cases: in vivo
Mahanarva fimbriolata = assay: Field trial, % control of Mahanarva fimbriolata nymphs and adult insects in sugarcane
Protocol: Trials were carried out in field to assess efficacy of flupyrimin against Mahanarva fimbriolata. Evaluation was done to check % control of nymphs and adult insects at intervals of 30 DAA and 60 DAA (for nymphs) and 7, 30 and 60 DAA (for adult insects). The efficacy was compared with standard insecticides thiamethoxam and ethiprole.

[1] = tested on: resistant Mahanarva fimbriolata; assay: Greenhouse pot trial, drench, mortality of resistant nymphs; details: for mortality at 400 g/ha / mortality at 250 g/ha: Mahanarva fimbriolata, soil; for mortality at 400 g/ha: read-out: Mortality (%) of Nymphs-Resistant population % Mortality, 400 g.a.i/ha; for mortality at 250 g/ha: read-out: Mortality (%) of Nymphs-Resistant population % Mortality, 250 g.a.i/ha
Protocol: The sugarcane plants were sown under greenhouse in pots. Artificially, each pot was infested with 10 nymphs in 3rd/4th instar. Infestation was done 24 h before of application for insect acclimatization. The treatments were applied via drenching, after infestation. The assessments were made at 3 and 5 days after infestation in 4 replications.

[2] = tested on: larvae Sphenophorus levis; assay: Larvae bioassay, residual contact and ingestion, dipped sugarcane stalks; details: for Larvae efficacy control (%): 1DAA
Protocol: The efficacy of flupyrimin was determined against the larvae stage of Sphenophorus levis. Accordingly, the larvae bioassay method was residual contact and ingestion. The sugarcane stalks were dipped in a insecticide solution then placed on a papart towel to dry. The sugarcane stalks were placed in glass tubes, then S. levis first stage and last instar lavae were introduced in each tube separately. The mortality achieved was 100% at 1 DAA. The treatments condidtions and the results are depicted in Table 8 below: […]

adult Sphenophorus levis = assay: Control efficacy against adults, plots sprayed
Protocol: The efficacy of flupyrimin was determined against adult and the larvae stage of Sphenophorus levis. To evaluate the efficacy of flupyrimin plots with ten Sphenophorus levis adults were populated. Flupyrimin at a concentration of 500 g/L was used to treat the plots by spraying. Each plot received a 10 cm splitted lengthwise suarcane stem piece as feed and accordingly each plot was subjected to treatment conditions as depicted in the table below.

CC[S+]([O-])c1c(C#N)nn(-c2c(Cl)cc(C(F)(F)F)cc2Cl)c1N (centres unmarked) [Ethiprole, ethiprole]
Adults % Control (Mahanarva fimbriolata; 400 g a.i./ha, 7 DAA): 100%
Adults % Control (Mahanarva fimbriolata; 400 g a.i./ha, 30 DAA): 100%
Nymphs % Control (Mahanarva fimbriolata; 400 g a.i./ha, 30 DAA): 95%
Adults % Control (Mahanarva fimbriolata; 400 g a.i./ha, 60 DAA): 100%
Nymphs % Control (Mahanarva fimbriolata; 400 g a.i./ha, 60 DAA): 100%
mortality at 400 g/ha ([1]; 0 DAA 3 DAI): 33%
mortality at 400 g/ha ([1]; 0 DAA 5 DAI): 45%

O=C(N=c1ccccn1Cc1ccc(Cl)nc1)C(F)(F)F [Flupyrimin, flupyrimin]
Adults % Control (Mahanarva fimbriolata; 150 g a.i./ha, 7 DAA): 80%
Adults % Control (Mahanarva fimbriolata; 150 g a.i./ha, 30 DAA): 100%
Nymphs % Control (Mahanarva fimbriolata; 150 g a.i./ha, 30 DAA): 62%
Adults % Control (Mahanarva fimbriolata; 150 g a.i./ha, 60 DAA): 75%
Nymphs % Control (Mahanarva fimbriolata; 150 g a.i./ha, 60 DAA): 95%
Adults % Control (Mahanarva fimbriolata; 200 g a.i./ha, 7 DAA): 80%
Adults % Control (Mahanarva fimbriolata; 200 g a.i./ha, 30 DAA): 50%
Nymphs % Control (Mahanarva fimbriolata; 200 g a.i./ha, 30 DAA): 97%
Adults % Control (Mahanarva fimbriolata; 200 g a.i./ha, 60 DAA): 100%
Nymphs % Control (Mahanarva fimbriolata; 200 g a.i./ha, 60 DAA): 95%
Adults % Control (Mahanarva fimbriolata; 250 g a.i./ha, 7 DAA): 60%
Adults % Control (Mahanarva fimbriolata; 250 g a.i./ha, 30 DAA): 100%
Nymphs % Control (Mahanarva fimbriolata; 250 g a.i./ha, 30 DAA): 92%
Adults % Control (Mahanarva fimbriolata; 250 g a.i./ha, 60 DAA): 50%
Nymphs % Control (Mahanarva fimbriolata; 250 g a.i./ha, 60 DAA): 100%
Nymphs % Control (Mahanarva fimbriolata; 250 g a.i./ha, 60 DAA, listed as flupyrimin): complete control
Adults % Control (Mahanarva fimbriolata; 300 g a.i./ha, 7 DAA): 40%
Adults % Control (Mahanarva fimbriolata; 300 g a.i./ha, 30 DAA): 25%
Nymphs % Control (Mahanarva fimbriolata; 300 g a.i./ha, 30 DAA): 81%
Adults % Control (Mahanarva fimbriolata; 300 g a.i./ha, 60 DAA): 100%
Nymphs % Control (Mahanarva fimbriolata; 300 g a.i./ha, 60 DAA): 95%
Larvae efficacy control (%) ([2]; 150 g of a.i/ha (0.30 kg-l/ha)): 100%
Larvae efficacy control (%) ([2]; 250 g of a.i/ha (0.50 kg-l/ha)): 100%
Larvae efficacy control (%) ([2]; 300 g of a.i/ha (0.60 kg-l/ha)): 100%
Larvae efficacy control (%) ([2]; 500 g of a.i/ha (1.00 kg-l/ha)): 100%
mortality of S. levis larvae ([2]; first stage and last instar larvae, 1 DAA, no dose stated): 100%
control of S. levis adults (in words) (adult Sphenophorus levis; 9 DAA, no dose stated): almost complete control
Adults efficacy control (%) (adult Sphenophorus levis; 150 g of a.i/ha (0.30 kg-l/ha), 1DAA): 46.3%
Adults efficacy control (%) (adult Sphenophorus levis; 150 g of a.i/ha (0.30 kg-l/ha), second value column, time not printed): 75.1%
Adults efficacy control (%) (adult Sphenophorus levis; 150 g of a.i/ha (0.30 kg-l/ha), third value column, time not printed): 97.3%
Adults efficacy control (%) (adult Sphenophorus levis; 250 g of a.i/ha (0.50 kg-l/ha), 1DAA): 61.0%
Adults efficacy control (%) (adult Sphenophorus levis; 250 g of a.i/ha (0.50 kg-l/ha), second value column, time not printed): 80.9%
Adults efficacy control (%) (adult Sphenophorus levis; 250 g of a.i/ha (0.50 kg-l/ha), third value column, time not printed): 100%
Adults efficacy control (%) (adult Sphenophorus levis; 300 g of a.i/ha (0.60 kg-l/ha), 1DAA): 59.5%
Adults efficacy control (%) (adult Sphenophorus levis; 300 g of a.i/ha (0.60 kg-l/ha), second value column, time not printed): 79.5%
Adults efficacy control (%) (adult Sphenophorus levis; 300 g of a.i/ha (0.60 kg-l/ha), third value column, time not printed): 99.1%
Adults efficacy control (%) (adult Sphenophorus levis; 500 g of a.i/ha (1.00 kg-l/ha), 1DAA): 56.9%
Adults efficacy control (%) (adult Sphenophorus levis; 500 g of a.i/ha (1.00 kg-l/ha), second value column, time not printed): 79.9%
Adults efficacy control (%) (adult Sphenophorus levis; 500 g of a.i/ha (1.00 kg-l/ha), third value column, time not printed): 97.3%
Mortality (%) of Nymphs-Resistant population % Mortality ([1]; 150 g.a.i/ha, 0 DAA 3 DAI): 85%
Mortality (%) of Nymphs-Resistant population % Mortality ([1]; 150 g.a.i/ha, 0 DAA 5 DAI): 98%
Mortality (%) of Nymphs-Resistant population % Mortality ([1]; 200 g.a.i/ha, 0 DAA 3 DAI): 97%
Mortality (%) of Nymphs-Resistant population % Mortality ([1]; 200 g.a.i/ha, 0 DAA 5 DAI): 100%
Mortality (%) of Nymphs-Resistant population % Mortality ([1]; 250 g.a.i/ha, 0 DAA 3 DAI): 98%
Mortality (%) of Nymphs-Resistant population % Mortality ([1]; 250 g.a.i/ha, 0 DAA 5 DAI): 98%
Mortality (%) of Nymphs-Resistant population % Mortality ([1]; 300 g.a.i/ha, 0 DAA 3 DAI): 97%
Mortality (%) of Nymphs-Resistant population % Mortality ([1]; 300 g.a.i/ha, 0 DAA 5 DAI): 100%
control of resistant nymphs (in words) ([1]; summary of the table, no dose stated): effective in completely controlling resistant nymphs

CN1COCN(Cc2cnc(Cl)s2)/C1=N\[N+](=O)[O-] [Thiamethoxam, thiamethoxam]
Adults % Control (Mahanarva fimbriolata; 250 g a.i./ha, 7 DAA): 60%
Adults % Control (Mahanarva fimbriolata; 250 g a.i./ha, 30 DAA): 50%
Nymphs % Control (Mahanarva fimbriolata; 250 g a.i./ha, 30 DAA): 86%
Adults % Control (Mahanarva fimbriolata; 250 g a.i./ha, 60 DAA): 75%
Nymphs % Control (Mahanarva fimbriolata; 250 g a.i./ha, 60 DAA): 90%
mortality at 250 g/ha ([1]; 0 DAA 3 DAI): 23%
mortality at 250 g/ha ([1]; 0 DAA 5 DAI): 25%
